Data from patent publication US20240238313A1, “DOSING OF CV-10155 IN THE EVENING OR PRIOR TO SLEEP TO TREAT GABAA DISORDERS” (priority 2021, published 2024).
Where “and” joins values, the source holds several entries; their conditions need not be identical. Equal entries are not always repeated. Entries after “also recorded” stand apart in the source; their conditions may differ. Where two headings read alike, the source gives them in different places.

Tests used:
Forced swim test = Forced swim test - Depression; set-up: species or system rodent; conditions: in vivo
[1] = cited from earlier work
[2] = human, in vivo, 60 mg
[3] = target: α4β3δ GABAA receptors (extra synaptic) (Homo sapiens, UniProt P28472+P48169); conditions: compositions containing isomerically pure compound; described in U.S. Pat. No. 10,857,163; cited from earlier work
α4β3δ GABAA receptors (extra synaptic), sequence (P48169 36-554): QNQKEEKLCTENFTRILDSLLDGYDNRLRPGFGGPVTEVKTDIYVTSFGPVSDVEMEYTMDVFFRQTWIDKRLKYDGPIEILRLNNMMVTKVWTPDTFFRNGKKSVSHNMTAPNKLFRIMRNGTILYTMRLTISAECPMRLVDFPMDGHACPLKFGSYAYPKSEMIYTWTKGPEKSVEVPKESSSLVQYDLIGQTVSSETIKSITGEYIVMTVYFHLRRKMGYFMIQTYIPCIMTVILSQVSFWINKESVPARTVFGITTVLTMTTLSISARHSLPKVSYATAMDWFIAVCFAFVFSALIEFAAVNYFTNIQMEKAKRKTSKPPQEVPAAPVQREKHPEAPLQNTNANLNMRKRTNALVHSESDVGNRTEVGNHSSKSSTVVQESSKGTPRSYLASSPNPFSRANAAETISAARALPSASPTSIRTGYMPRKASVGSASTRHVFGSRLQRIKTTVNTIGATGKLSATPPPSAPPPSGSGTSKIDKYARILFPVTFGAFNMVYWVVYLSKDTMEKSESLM
α4β3δ GABAA receptors (extra synaptic), sequence (P28472 26-473): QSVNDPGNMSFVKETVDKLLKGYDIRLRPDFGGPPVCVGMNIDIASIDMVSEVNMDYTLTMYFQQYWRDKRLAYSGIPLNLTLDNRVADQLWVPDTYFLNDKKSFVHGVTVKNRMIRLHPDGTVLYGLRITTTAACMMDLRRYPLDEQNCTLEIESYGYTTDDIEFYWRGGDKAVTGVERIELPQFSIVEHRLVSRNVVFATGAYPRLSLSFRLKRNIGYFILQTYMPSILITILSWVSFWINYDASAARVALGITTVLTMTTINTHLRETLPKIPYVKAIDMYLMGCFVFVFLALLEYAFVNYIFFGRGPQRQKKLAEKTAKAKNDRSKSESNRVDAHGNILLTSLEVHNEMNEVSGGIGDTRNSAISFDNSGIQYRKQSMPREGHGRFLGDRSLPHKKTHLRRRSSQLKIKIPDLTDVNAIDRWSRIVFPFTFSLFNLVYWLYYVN
α4β3δ GABAA receptors (extra synaptic), sequence (O14764 17-452 partner limits assumed): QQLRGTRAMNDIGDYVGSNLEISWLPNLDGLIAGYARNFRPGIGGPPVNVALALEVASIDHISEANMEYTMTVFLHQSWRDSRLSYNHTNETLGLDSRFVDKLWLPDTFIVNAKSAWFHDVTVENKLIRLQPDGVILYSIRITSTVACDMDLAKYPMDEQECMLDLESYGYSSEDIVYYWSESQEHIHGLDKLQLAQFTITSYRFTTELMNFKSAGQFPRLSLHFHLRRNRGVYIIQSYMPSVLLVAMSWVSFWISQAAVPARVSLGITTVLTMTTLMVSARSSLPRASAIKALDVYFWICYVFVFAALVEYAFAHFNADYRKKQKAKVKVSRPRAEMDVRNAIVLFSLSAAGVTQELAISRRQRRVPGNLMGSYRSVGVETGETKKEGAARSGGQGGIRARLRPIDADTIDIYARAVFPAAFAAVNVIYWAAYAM

[4] = humans, single oral dose, range of 5-135 mg
[5] = 60 mg CV-10155 orally once per day for seven days in humans (MAD): PK and adverse events
[6] = 60 mg, evening, fed state, N = 9
[7] = 60 mg, morning, fasted state, N = 9
[8] = 10 mg in HPMC-AS formulation PO, fed cohort, individual dogs #9-12 and mean (r14)
[9] = 10 mg in HPMC-AS formulation PO, pentagastrin/fasted cohort, individual dogs #1-4 and mean (r14)
[10] = 30 mg in HPMC-AS formulation PO, pentagastrin/fasted cohort, individual dogs #13-16 and mean (r14)

Q: Which “Doses tested in Forced swim test - Depression (* significantly efficacious dose)” value (Forced swim test) does the source give for `C[C@@]1(O)CC[C@H]2[C@H](CC[C@@H]3[C@@H]2CC[C@]2(C)[C@@H](C(=O)Cn4cc(C#N)cn4)CC[C@@H]32)C1` [Sage-217] here?
A: 1 - 3* mg/kg

Q: What about the “Any AE, (%)” value ([1]; 20 mg (n-188)) of the same molecule?
A: 50.0%

Q: And the “Diarrhea, (%)” value ([1]; 20 mg (n-188))?
A: 5.9%

Q: What about the “Dizziness, (%)” value ([1]; 20 mg (n-188)) of the same molecule?
A: 7.4%

Q: And the “Fatigue, (%)” value ([1]; 20 mg (n-188))?
A: 1.6%

Q: And the “Headache, (%)” value ([1]; 20 mg (n-188))?
A: 11.2%

Q: And the “Nausea, (%)” value ([1]; 20 mg (n-188))?
A: 5.3%

Q: And the “Sedation, (%)” value ([1]; 20 mg (n-188))?
A: 5.9%

Q: And the “Somnolence, (%)” value ([1]; 20 mg (n-188))?
A: 5.9%

Q: And the “Any AE, (%)” value ([1]; 30 mg (n-192))?
A: 54.2%

Q: What about the “Diarrhea, (%)” value ([1]; 30 mg (n-192)) of the same molecule?
A: 6.3%

Q: What about the “Dizziness, (%)” value ([1]; 30 mg (n-192)) of the same molecule?
A: 5.7%

Q: What about the “Fatigue, (%)” value ([1]; 30 mg (n-192)) of the same molecule?
A: 6.8%

Q: What about the “Headache, (%)” value ([1]; 30 mg (n-192)) of the same molecule?
A: 6.3%

Q: And the “Nausea, (%)” value ([1]; 30 mg (n-192))?
A: 3.6%

Q: And the “Sedation, (%)” value ([1]; 30 mg (n-192))?
A: 4.7%

Q: And the “Somnolence, (%)” value ([1]; 30 mg (n-192))?
A: 6.8%

Q: For `C[C@@]1(O)CC[C@@]2(C)[C@@H](CC[C@@H]3[C@@H]2CC[C@]2(C)[C@@H](C(=O)Cn4cc(C#N)cn4)CC[C@@H]32)C1` [CV-10155, 1-[2-[(3R,5S,8R,9S,10S,13S,14S,17S)-3-hydroxy-3,10,13-trimethyl-1,2,4,5,6,7,8,9,11,12,14,15,16,17-tetradecahydrocyclopenta[a]phenanthren-17-yl]-2-oxoethyl]pyrazole-4-carbonitrile], which “Racc Cmax” value [2] is on record?
A: 1.78

Q: And the “preferential potentiation of α4β3δ as compared to α1β2γ2 GABAA receptors” value [3]?
A: preferentially potentiate α4β3δ GABAA receptors

Q: What about the dose-limiting adverse events [4] of the same molecule?
A: No dose-limiting adverse events

Q: What about the “AE Back pain, #” value [5, 6] of the same molecule?
A: 1

Q: What about the “AE Bloating, #” value [5, 6] of the same molecule?
A: 1

Q: And the “AE Dizziness, #” value [5, 6]?
A: 1

Q: And the “AE Headache, #” value [5, 6]?
A: 2

Q: What about the “AE Sleepiness, #” value ([5]; 60 mg, evening, fed state, N = 9 (two separate table lines)) of the same molecule?
A: 1

Q: And the “AE Dizziness, #” value [5, 7]?
A: 1

Q: And the “AE Feeling sleepy, #” value [5, 7]?
A: 1

Q: What about the “AE Feeling tired, #” value [5, 7] of the same molecule?
A: 2

Q: And the “AE Headache, #” value [5, 7]?
A: 2

Q: What about the “AE Sleepiness, #” value [5, 7] of the same molecule?
A: 9

Q: And the “AE Tiredness, #” value [5, 7]?
A: 3

Q: And the “tolerability profile compared to PRAX-114 and Sage-217” value ([5]; humans, 60 mg dosed in the evening)?
A: favorable tolerability profile compared to PRAX-114

Q: What about the “exposure levels compared with 30 mg doses of Sage-217” value ([5]; humans, 60 mg doses) of the same molecule?
A: higher exposure levels

Q: What about the AE ([5]; humans, CV-10155 in the evening in a fed state, individual subjects) of the same molecule?
A: Headache; also recorded: Somnolence; also recorded: Back pain; also recorded: Abdominal distension; also recorded: Dizziness

Q: And the Severity ([5]; humans, evening, fed state, per AE of the same table row)?
A: Moderate and Mild

Q: And the “adverse effects interfering with sleeping” value ([5]; humans, oral, evening, fed subjects)?
A: does not produce adverse effects that interfere with sleeping

Q: What about the AUCInf [8] of the same molecule?
A: 2440 ng·h/mL

Q: What about the AUCInf/D [8] of the same molecule?
A: 5602 kg·ng·h/mL/mg and 2929 kg·ng·h/mL/mg and 2273 kg·ng·h/mL/mg and 4084 kg·ng·h/mL/mg

Q: And the T1/2 [8]?
A: 12.5 h

Q: What about the Tmax [8] of the same molecule?
A: 1.13 h

Q: What about the AUCInf [9] of the same molecule?
A: 2612 ng·h/mL

Q: And the AUCInf/D [9]?
A: 2762 kg·ng·h/mL/mg and 2441 kg·ng·h/mL/mg and 3314 kg·ng·h/mL/mg and 2821 kg·ng·h/mL/mg

Q: And the Tmax [9]?
A: 1.50 h

Q: What about the AUCInf/D [10] of the same molecule?
A: 4995 kg·ng·h/mL/mg and 3157 kg·ng·h/mL/mg and 1572 kg·ng·h/mL/mg and 2982 kg·ng·h/mL/mg

Q: And the T1/2 [10]?
A: 12.3 h
